Reference: ChEMBL document CHEMBL1149719, “Psammaplysin C: a new cytotoxic dibromotyrosine-derived metabolite from the marine sponge Druinella (= Psammaplysilla) purpurea” (J Nat Prod, 1992)
Values after ≈ are worked out from the molar mass of the structure shown.

System: HCT-116
Test: Cytotoxicity against human HCT116 cells
Format: functional, cell-based

## COC1=C(Br)C[C@]2(OC=C1Br)ON=C(C(=O)NCCCOc1c(Br)cc(CCN)cc1Br)[C@@H]2O [PSAMMAPLYSIN A]
  IC50: 6 µg/mL (≈ 8.19 µM)

## COC1=C(Br)C[C@]2(OC=C1Br)ON=C(C(=O)NCCCOc1c(Br)cc(C(O)CN)cc1Br)[C@@H]2O (stereo partly drawn) [PSAMMAPLYSIN B]
  IC50: 6 µg/mL (≈ 8.01 µM)

## CNCC(O)c1cc(Br)c(OCCCNC(=O)C2=NO[C@@]3(CC(Br)=C(OC)C(Br)=CO3)[C@H]2O)c(Br)c1 (stereo partly drawn) [PSAMMAPLYSIN C]
  IC50: 3 µg/mL (≈ 3.93 µM)
